Tested on: HBV cccDNA (HBeAg as surrogate marker) in HepDES19 cells
Experiment: Engineered HepDES19 primary screen assay (HBeAg as surrogate marker for cccDNA)
Type: cell-based
Conditions: Hepatitis B virus, HepDES19, 120 h
Excerpt: The assay was employed to screen for cccDNA inhibitors. HepDES19 is a cccDNA-producing cell line. In this cell line, HBeAg in the cell culture supernatant as surrogate marker, as HBeAg production depends on cccDNA level and activity. HepDES19 is an engineered cell line which contains a 1.1 unit length HBV genome, and pgRNA transcription from the transgene is controlled by Tetracycline (Tet). In the absence of Tet, pgRNA transcription will be induced, but HBV e antigen (HBeAg) could not be produced from this pgRNA due to very short leader sequence before the HBeAg start codon and the start codon is disrupted. Only after cccDNA is formed, the missing leader sequence and start codon mutation would be restored from the 3′-terminal redundancy of pgRNA, and then HBeAg could be synthesized. Therefore, HBeAg could be used as a surrogate marker for cccDNA (Zhou, T. et al., Antiviral Res. (2006), 72 (2), 116-124; Guo, H. et al., J. Virol. (2007), 81 (22), 12472-12484).
HepDES19 cells were seeded at 2×10^6 cells per T150 flask and cultured with the culture medium (Dulbecco's Modified Eagle Medium: Nutrient Mixture F-12 [DMEM-F12, Gibco Cat. 11320-82], 10% Fetal Bovine Serum [FBS, Clontech Cat. 631101], 0.1 mM Non-Essential Amino Acids Solution [NEAA, Gibco Cat. 11140-050], 50 μg/mL Penicillin-Streptomycin [PS, Invitrogen Cat. 15140-163], 500 μg/mL Geneticin [G418, Invitrogen Cat. 10131-027]) containing 3 μg/mL Tet (Sigma, Cat. 87128) for 5 days. Cells were then seeded at 4×10^6 cells per T150 in the same culture medium as described above in the absence of Tet for 8 days. Cells were then harvested and frozen at density of 2×10^6 cells per mL. For compound testing, the frozen cells were thawed and seeded into 96-well plates at a density of 6×10^4 cells per well. At 24 hours after seeding, half log serial dilutions of compounds made with Dimethyl sulfoxide (DMSO, Sigma, Cat. D2650) were further diluted with the same culture medium as described above before they were added to the cells to reach desired final compound concentrations and 1% DMSO concentration. Plates were then incubated at 37° C. for another 5 days before measurement of HBeAg level and cell viability. Intracellular HBeAg level were measured with enzyme-linked immunosorbent assay (ELISA) kit (Shanghai Kehua Diagnostic Medical Products Co., Ltd). Cell viability was assessed using Cell Counting Kit-8 (DonJindo, Cat. CK04-20). IC50 values were derived from the dose-response curve using 4 parameters logistic curve fit method.
The compounds of the present invention were tested for their capacity to inhibit extracellular HBeAg level as described herein.

| SMILES | IC50 |
| --- | --- |
| O=C(O)COCCOc1cc(C(F)(F)F)ccc1C1CC(=O)c2cccc(Cl)c2O1 (stereo not drawn) [Example 21, 2-[2-[2-(8-chloro-4-oxo-chroman-2-yl)-5-(trifluoromethyl)phenoxy]ethoxy]acetic Acid] | 4.89 µM |
| O=C(O)COCCCOc1cc(C(F)(F)F)ccc1C1CC(=O)c2ccc(F)c(Cl)c2O1 (stereo not drawn) [Example 24, 2-[3-[2-(8-chloro-7-fluoro-4-oxo-chroman-2-yl)-5-(trifluoromethyl)phenoxy]propoxy]acetic Acid] | 7.14 µM |
| O=C1CC(c2ccc(C(F)(F)F)cc2OCCOC2CC(C(=O)O)C2)Oc2c(Cl)cccc21 (stereo not drawn) [Example 20, 3-[2-[2-(8-chloro-4-oxo-chroman-2-yl)-5-(trifluoromethyl)phenoxy]ethoxy]cyclobutanecarboxylic Acid] | 0.01 µM |
| CCS(=O)(=O)N[C@@H](COc1cc(C(F)(F)F)ccc1C1CC(=O)c2cccc(Cl)c2O1)C(=O)O (stereo partly drawn) [Example 29, (2S)-3-[2-(8-chloro-4-oxo-chroman-2-yl)-5-(trifluoromethyl)phenoxy]-2-(ethylsulfonylamino)propanoic Acid] | 1.91 µM |
| O=C1CC(c2ccc(Br)cc2O[C@H]2C[C@@H](C(=O)O)C2)Oc2c(Cl)cccc21 (stereo partly drawn) [Example 37, cis-3-[5-bromo-2-(8-chloro-4-oxo-chroman-2-yl)phenoxy]cyclobutanecarboxylic Acid] | 0.67 µM |
| O=C1CC(c2ccc(C(F)(F)F)cc2OC2CC(C(=O)O)C2)Oc2c(Cl)cccc21 (stereo not drawn) [Example 17, 3-[2-(8-chloro-4-oxo-chroman-2-yl)-5-(trifluoromethyl)phenoxy]cyclobutanecarboxylic Acid] | 1.56 µM |
| O=C(O)C(=O)NCCOc1cc(Cl)ccc1C1CC(=O)c2cccc(Cl)c2O1 (stereo not drawn) [Example 36, 2-[2-[5-chloro-2-(8-chloro-4-oxo-chroman-2-yl)phenoxy]ethylamino]-2-oxo-acetic Acid] | 12.9 µM |
| O=C(O)CCOc1cc2c(cc1C1CC(=O)c3cccc(Cl)c3O1)OCO2 (stereo not drawn) [Example 12, 3-[[6-(8-chloro-4-oxo-chroman-2-yl)-1,3-benzodioxol-5-yl]oxy]propanoic Acid] | 10.1 µM |
| O=C1CC(c2ccc(C(F)(F)F)cc2OCCCO)Oc2c1ccc(F)c2Cl (stereo not drawn) [Example 33, 8-chloro-7-fluoro-2-[2-(3-hydroxypropoxy)-4-(trifluoromethyl)phenyl]chroman-4-one] | 0.68 µM |
| NS(=O)(=O)N[C@H](COc1cc(C(F)(F)F)ccc1[C@H]1CC(=O)c2cccc(Cl)c2O1)C(=O)O [Example 30-B, (2R)-3-[2-[(2R)-8-chloro-4-oxo-chroman-2-yl]-5-(trifluoromethyl)phenoxy]-2-(sulfamoylamino)propanoic Acid] | 10.7 µM |
| O=C(O)CCCOc1cc(C(F)(F)F)ccc1C1CC(=O)c2ccc(F)c(Cl)c2O1 (stereo not drawn) [Example 25, 4-[2-(8-chloro-7-fluoro-4-oxo-chroman-2-yl)-5-(trifluoromethyl)phenoxy]butanoic Acid] | 1.18 µM |
| CCNS(=O)(=O)N[C@H](COc1cc(C(F)(F)F)ccc1[C@H]1CC(=O)c2cccc(Cl)c2O1)C(=O)O [Example 31-B, (2R)-3-[2-[(2R)-8-chloro-4-oxo-chroman-2-yl]-5-(trifluoromethyl)phenoxy]-2-(ethylsulfamoylamino)propanoic Acid] | 10.9 µM |
| O=C(O)CCOc1cc(Br)ccc1[C@H]1CC(=O)c2cccc(Cl)c2O1 [Example 16-B, 3-[5-bromo-2-[(2R)-8-chloro-4-oxo-chroman-2-yl]phenoxy]propanoic Acid] | 0.48 µM |
| O=C(O)COc1cc(C(F)(F)F)ccc1C1CC(=O)c2ccc(F)c(Cl)c2O1 (stereo not drawn) [Example 26, 2-[2-(8-chloro-7-fluoro-4-oxo-chroman-2-yl)-5-(trifluoromethyl)phenoxy]acetic Acid] | 2.78 µM |
| COc1cc(Cl)c2c(c1)C(=O)CC(c1ccc(C(F)(F)F)cc1OCCC(=O)O)O2 (stereo not drawn) [Example 5, 3-[2-(8-chloro-6-methoxy-4-oxo-chroman-2-yl)-5-(trifluoromethyl)phenoxy]propanoic Acid] | 3.06 µM |
